Counter-ions that a name gives are not always drawn.
Assays:
[1] = biological target: T1, human dopamine D3 receptors (Homo sapiens, UniProt P35462); experiment: Dopamine D3 receptor binding, displacement of [125I]-iodosulpride; conditions: membranes from HEK-293 cells with stably expressed human D3 receptors, 0.1 nM [125I]-iodosulpride
T1 construct: expressed in transfected cells; membranes)
Protocol: (§1) The substance to be tested was dissolved either in methanol/Chremophor® (BASF-AG) or in dimethyl sulfoxide and then diluted with water to the desired concentration.
(§2) Triplicate mixtures were carried out.
The incubation buffer comprised 50 mM Tris, 120 mM NaCl, 5 mM KCl, 2 mM CaCl2, 2 mM MgCl2 and 0.1% bovine serum albumin, 10 μM quinolone, 0.1% ascorbic acid (prepared fresh each day). The buffer was adjusted to pH 7.4 with HCl.
(§3) III. Measurement and Evaluation:
(§4) After incubation at 25° C. for 60 minutes, the mixtures were filtered under vacuum through Whatman GF/B glass fiber filters using a cell harvester. The filters were transferred by a filter transfer system into scintillation vials. After addition of 4 ml of Ultima Gold® (Packard), the samples were shaken for one hour and then the radioactivity was counted in a beta counter (Packard, Tricarb 2000 or 2200CA). The cp values were converted into dpm by means of a standard quench series with the aid of the instrument's own program.
(§5) Evaluation of the inhibition plots took place by iterative nonlinear regression analysis using the Statistical Analysis System (SAS) similar to the “LIGAND” program described by Munson and Rodbard.

[2] = biological target: T2, human dopamine D2L receptors (long isoform) (Homo sapiens, UniProt P14416); experiment: Dopamine D2L receptor binding, displacement of [125I]-iodospiperone; conditions: ratio Ki(D2L)/Ki(D3); HEK-293 membranes with human D2L and D3 receptors
T2 construct: expressed in transfected cells; membranes)
Protocol: as §1
II. Dopamine D2L Receptor:
as §2
The incubation buffer comprised 50 mM Tris, 120 mM NaCl, 5 mM KCl, 2 mM CaCl2, 2 mM MgCl2 and 0.1% bovine serum albumin. The buffer was adjusted to pH 7.4 with HCl.
as §3, §4, §5

T1 sequence (P35462 whole entry): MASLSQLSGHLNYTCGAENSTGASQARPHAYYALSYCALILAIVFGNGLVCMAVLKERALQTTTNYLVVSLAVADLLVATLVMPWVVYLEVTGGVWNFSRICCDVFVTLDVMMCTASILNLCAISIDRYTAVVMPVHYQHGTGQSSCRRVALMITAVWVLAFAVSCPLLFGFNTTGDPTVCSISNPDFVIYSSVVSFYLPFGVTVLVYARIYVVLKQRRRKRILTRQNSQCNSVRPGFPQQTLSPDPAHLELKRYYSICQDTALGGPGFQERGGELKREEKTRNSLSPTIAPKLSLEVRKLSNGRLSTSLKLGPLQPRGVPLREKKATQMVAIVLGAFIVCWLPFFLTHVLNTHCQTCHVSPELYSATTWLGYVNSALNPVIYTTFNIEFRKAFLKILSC
T2 sequence (P14416 whole entry, canonical isoform): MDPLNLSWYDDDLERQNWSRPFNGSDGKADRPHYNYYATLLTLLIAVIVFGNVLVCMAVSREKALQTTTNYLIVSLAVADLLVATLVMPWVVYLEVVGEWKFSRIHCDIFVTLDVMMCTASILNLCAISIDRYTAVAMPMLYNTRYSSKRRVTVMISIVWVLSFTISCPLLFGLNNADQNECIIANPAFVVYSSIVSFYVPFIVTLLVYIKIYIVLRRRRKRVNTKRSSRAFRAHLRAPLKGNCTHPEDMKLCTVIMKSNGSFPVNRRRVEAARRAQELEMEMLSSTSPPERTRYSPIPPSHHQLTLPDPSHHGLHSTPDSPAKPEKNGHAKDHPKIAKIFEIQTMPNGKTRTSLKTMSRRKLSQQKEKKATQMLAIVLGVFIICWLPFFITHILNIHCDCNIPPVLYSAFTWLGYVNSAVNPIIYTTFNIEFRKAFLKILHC

| SMILES | Ki [1] [nM] | Selectivity vs. D2L (Ki(D2L)/Ki(D3)) [2] |
| --- | --- | --- |
| COc1cc2c(cc1OC)N(CCCCN1CCN(c3cc(C(F)(F)F)nc(C(C)(C)C)n3)CC1)C(=O)CCC2=O [Example 6, 1-(4-{4-[2-tert-Butyl-6-(trifluoromethyl)pyrimidin-4-yl]piperazin-1-yl}butyl)-7,8-dimethoxy-3,4-dihydro-1H-1-benzazepine-2,5-dione] | 4.5 | 104 |
| CC(C)(C)c1nc(N2CCN(C/C=C/CN3C(=O)CCC(=O)c4ccccc43)CC2)cc(C(F)(F)F)n1 [Example 4, 1-((2E)-4-{4-[2-tert-Butyl-6-(trifluoromethyl)pyrimidin-4-yl]piperazin-1-yl}but-2-enyl)-3,4-dihydro-1H-1-benzazepine-2,5-dione] | 1.74 | 155 |
| CC(C)(C)c1cc(N2CCN(CCCCN3C(=O)CCC(=O)c4ccccc43)CC2)nc(C(C)(C)C)n1.Cl [Example 10, 1-{4-[4-(2,6-Di-tert-butylpyrimidin-4-yl)piperazin-1-yl]butyl}-3,4-dihydro-1H-1-benzazepine-2,5-dione hydrochloride] | 1.24 | 74 |
| O=C1CCC(=O)N(CCCCN2CCN(c3cc(Cl)cc(Cl)c3)CC2)c2ccccc21 [Example 86, 1-{4-[4-(3,5-Dichlorophenyl)-2,5-piperazin-1-yl]butyl}-3,4-dihydro-1H-benzo[b]azepine-2,5-dione fumarate] | 2 | 56 |
| O=C(O)/C=C/C(=O)O.O=C1CCC(=O)N(CCCCN2CCN(c3cc(C(F)(F)F)cc(C(F)(F)F)c3)CC2)c2ccccc21 [Example 87, 1-{4-[4-(3,5-Bis(trifluoromethyl)phenyl)piperazin-1-yl]butyl}-3,4-dihydro-1H-benzo[b]azepine-2,5-dione fumarate] | 7.4 | 129 |
| CCCc1cc(N2CCN(CCCCN3C(=O)CCC(=O)c4ccccc43)CC2)nc(C(C)(C)C)n1.Cl [Example 7, 1-{4-[4-(2-tert-Butyl-6-propylpyrimidin-4-yl)piperazin-1-yl]butyl}-3,4-dihydro-1H-1-benzazepine-2,5-dione hydrochloride] | 1.33 | 118 |
| CC(C)(C)c1nc(C2CC2)cc(N2CCN(CCCCN3C(=O)CCC(=O)c4ccccc43)CC2)n1 [Example 16, 1-{4-[4-(2-tert-Butyl-6-cyclopropylpyrimidin-4-yl)piperazin-1-yl]butyl}-3,4-dihydro-1H-benzo[b]azepine-2,5-dione] | 0.96 | 62 |

From US7723384B2, “Keto lactam compounds and use thereof” (Abbott GmbH & Co. KG., priority 2003, dated 2010)
